Test results: patent publication US7528226B2, “TGFβ1-inhibitor peptides” (Rojecto de Biomedicina Cima S.L., priority 1998, dated 2009)
No end group written: not given here.

Biological target: T1, TGFβ1 (Homo sapiens, UniProt P01137)
T1 construct: the mature TGFβ1 is released by another cut; purchased R&D Systems Europe Ltd., Abingdon, UK
Assay type: cell-based
Conditions: TGFβ1 200 pg/ml
Protocol: A line derived from mink pulmonary epithelium, MV-1-Lu, was used (CCL-64, American Type Cell Culture, Virginia, USA). The cells were grown in 162 cm^2 culture flasks (Costar Corporation, Cambridge, USA) in a stove at 37° C. and 5% CO2, until subconfluence was attained. A complete medium was used: RPMI 1640 with L-glutamine (GibcoBRL, Life Technologies Ltd., Paisley, Scotland) supplemented with 5% of foetal calf serum (FCS, Biological Industries, Kibbutz Beit Haemek, Israel), 10 mM HEPES (1M HEPES Buffer, Bio-Whittaker, Verviers, Belgium) and antibiotics (100 U/ml penicillin and 100 μ/ml streptomycin).
The MV-1-Lu cells grown as indicated above were removed from the bottom of the culture flasks using 5 ml of trypsin-EDTA (Biological Industries, Kibbutz Beit Haemek, Israel), resuspended in complete medium and centrifuged at 1500 rev/min for 8 minutes. After centrifugation the cells were resuspended in complete medium to a concentration of 50,000 cells/ml. For conducting the test, 10 ml of the cell suspension were taken and dispensed in 96-well, flat-bottom culture plates (Costar Corporation, Cambridge, USA), adding 100 μl/well, and were incubated overnight at 37° C. and 5% CO2, which permits adhesion of the cells to the bottom of the wells. […] The final concentration of FCS in the well was 2.5%. After 24 hours of incubation, 1 μCi of tritiated thymidine was added per well (25 Ci/mmol [methyl-^3H]-thymidine, Amersham Life Science, Buckinghamshire, UK) with incubation for a further 12 hours (Grubeck-Loebenstein B. et al. (1989) J. Clin. Invest. 83:764-770; Brennan F M et al. (1990) Clin. Exp. Immunol. 81:278-285).
At the end of the incubation periods the cells were removed from the bottom of the wells with trypsin-EDTA and were collected using a manual harvester (Titertek cell harvester, Skatron Instruments Inc., Sterling, USA) which ruptures the cells, collecting the DNA in nitrocellulose filters (Filter MAT 11731, Skatron Instruments Inc., Sterling, USA) where it is fixed. The filters were placed individually in 5 ml polypropylene tubes to which 4 ml of scintillation fluid was added (Biogreen-11, Reactivos Scharlau S. A., Barcelona, Spain). The activity of each tube was quantified for 90 seconds in a β LKB scintillation counter (Beta plate system, LKB, Uppsala, Sweden).
TGFβ1 is a cytokine that is able to inhibit the growth in vitro of the MV-1-Lu cell line (Grubeck-Loebenstein B. et al. (1989) J. Clin. Invest. 83:764-770; Brennan F M et al. (1990) Clin. Exp. Immunol. 81:278-285), therefore this line was used for testing the blocking effect of peptides on TGFβ1. After different combinations of media, cells and thymidine, we studied the effect of different concentrations of TGFβ1 on incorporation of [methyl-^3H]thymidine by MV-1-Lu cells in culture, for determining the most suitable conditions for the test. […]
The synthetic peptides that are potentially inhibitors of TGFβ1 activity, selected as indicated above in the section: selection of the peptides to be synthesized (both those derived from proteins that bind to TGFβ1 itself) were tested using the MV-1-Lu cell line. The selected peptides are soluble in buffered RPMI medium. The peptides were dissolved in buffered RPMI medium, free from foetal calf serum, and the following was used.
The peptides belonging to the sequence of the receptor, or complementary to the peaks of hydrophilicity of TGFβ1, were incubated for 30 minutes in the presence of this cytokine and were then combined with the cell culture. The peptides derived from the sequence of TGFβ1 were added to the cell culture prior to addition of TGFβ1, since they interact with the receptors of the cell surface. These incubations were effected in 100 μl of the same medium as was used for adding the cells. The active peptides permitted cell growth to a greater or lesser degree depending on its ability to inhibit TGFβ1.

T1 sequence (P01137 279-390): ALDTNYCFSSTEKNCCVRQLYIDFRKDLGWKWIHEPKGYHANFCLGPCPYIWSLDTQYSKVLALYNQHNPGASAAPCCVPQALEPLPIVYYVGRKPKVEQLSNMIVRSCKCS

inhibitory activity of TGFβ1 (in words) (peptide 200 μg/ml, MV-1-Lu cells): had proved active
Sequence: TSLDASIIWAMMQN [P144, ThrSerLeuAspAlaSerIleIleTrpAlaMetMetGlnAsn]
dependence of the inhibitory activity on the peptide concentration (dose-response test): activity of the peptide decreases with the decrease in the concentration
